Where two headings read alike, the source gives them in different places.
Experiments:
TYK2 JH2 domain = TYK2 JH2 domain (Homo sapiens (Human), UniProt P29597); test: TYK2 JH2 NanoBRET assay; assay type: binding
Description: HEK293T cells were transfected with NanoLuc-TYK2 JH2 Fusion Vector (Promega, customized) using Trans-IT reagent (Mirus, #MIR2700) and incubated for overnight in 37° C. incubator. […] Add 85 µL of cell suspension into white, polypropylene, 96-well plates (Corning, #3600). 90 µL of cells were used for no tracer control samples. 5 µL of diluted NanoBRET K10 tracer (Promega, #CS1810C122) were added to cells to a final concentration of 0.5 µM. Test compounds were diluted into DMSO, and then phenol-free opti-MEM to 10X of final concentration. 10 µL of diluted compounds were added into each well. The cells were incubated with test compound and tracer for 2 hours. 3XNanoBRET® Nano-Glo® Substrate and Extracellular NanoLuc® Inhibitor mixture were prepared and 50 µL of the mixture were added into the wells and mixed. […] NanoBRET signal was determined by using the ratio of acceptor signal and donor signal.

human JAK1 = human JAK1 (Homo sapiens (Human), UniProt P23458); test: JAK1 TR-FRET kinase assay; assay type: biochemical; conditions: TR-FRET, JAK1 2.5 nM
human JAK2 = human JAK2 (Homo sapiens (Human), UniProt O60674); test: JAK2 TR-FRET kinase assay; assay type: biochemical; conditions: JAK2 0.025 nM
human JAK3 = human JAK3 (Homo sapiens (Human), UniProt P52333); test: JAK3 TR-FRET kinase assay; assay type: biochemical; conditions: JAK3 0.0125 nM
[1] = HEK293T cells, Table 19, read-out: IC50 (nM), TYK2 activity

Sequence of human JAK1 (P23458 whole entry): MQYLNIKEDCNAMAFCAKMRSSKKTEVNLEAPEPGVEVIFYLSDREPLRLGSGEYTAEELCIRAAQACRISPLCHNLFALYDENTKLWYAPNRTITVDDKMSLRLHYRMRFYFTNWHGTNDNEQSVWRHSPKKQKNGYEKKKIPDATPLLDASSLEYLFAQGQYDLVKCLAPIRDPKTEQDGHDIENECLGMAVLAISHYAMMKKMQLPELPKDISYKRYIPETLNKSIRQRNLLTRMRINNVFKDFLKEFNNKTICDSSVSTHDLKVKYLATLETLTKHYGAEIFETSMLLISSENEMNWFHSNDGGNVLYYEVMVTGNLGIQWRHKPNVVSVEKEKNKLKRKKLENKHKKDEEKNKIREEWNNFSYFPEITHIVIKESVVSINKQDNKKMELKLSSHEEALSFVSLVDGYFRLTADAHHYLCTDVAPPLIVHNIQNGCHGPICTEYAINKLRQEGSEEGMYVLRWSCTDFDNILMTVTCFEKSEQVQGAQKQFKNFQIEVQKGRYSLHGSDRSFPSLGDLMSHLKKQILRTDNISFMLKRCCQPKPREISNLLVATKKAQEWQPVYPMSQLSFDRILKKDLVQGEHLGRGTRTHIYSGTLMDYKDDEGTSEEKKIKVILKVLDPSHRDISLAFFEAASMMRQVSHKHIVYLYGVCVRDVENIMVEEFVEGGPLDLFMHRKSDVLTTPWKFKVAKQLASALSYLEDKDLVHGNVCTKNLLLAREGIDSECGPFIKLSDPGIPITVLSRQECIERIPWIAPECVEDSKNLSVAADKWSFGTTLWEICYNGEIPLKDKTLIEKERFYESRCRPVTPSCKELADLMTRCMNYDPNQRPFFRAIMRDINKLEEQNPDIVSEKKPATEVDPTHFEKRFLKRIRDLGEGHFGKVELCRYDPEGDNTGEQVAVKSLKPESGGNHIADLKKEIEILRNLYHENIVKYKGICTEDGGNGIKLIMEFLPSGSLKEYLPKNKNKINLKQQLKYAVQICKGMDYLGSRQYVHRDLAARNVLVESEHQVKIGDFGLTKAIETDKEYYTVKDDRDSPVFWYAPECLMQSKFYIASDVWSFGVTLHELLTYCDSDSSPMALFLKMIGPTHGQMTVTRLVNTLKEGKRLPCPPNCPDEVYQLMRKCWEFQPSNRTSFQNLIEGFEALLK
Sequence of human JAK2 (O60674 whole entry): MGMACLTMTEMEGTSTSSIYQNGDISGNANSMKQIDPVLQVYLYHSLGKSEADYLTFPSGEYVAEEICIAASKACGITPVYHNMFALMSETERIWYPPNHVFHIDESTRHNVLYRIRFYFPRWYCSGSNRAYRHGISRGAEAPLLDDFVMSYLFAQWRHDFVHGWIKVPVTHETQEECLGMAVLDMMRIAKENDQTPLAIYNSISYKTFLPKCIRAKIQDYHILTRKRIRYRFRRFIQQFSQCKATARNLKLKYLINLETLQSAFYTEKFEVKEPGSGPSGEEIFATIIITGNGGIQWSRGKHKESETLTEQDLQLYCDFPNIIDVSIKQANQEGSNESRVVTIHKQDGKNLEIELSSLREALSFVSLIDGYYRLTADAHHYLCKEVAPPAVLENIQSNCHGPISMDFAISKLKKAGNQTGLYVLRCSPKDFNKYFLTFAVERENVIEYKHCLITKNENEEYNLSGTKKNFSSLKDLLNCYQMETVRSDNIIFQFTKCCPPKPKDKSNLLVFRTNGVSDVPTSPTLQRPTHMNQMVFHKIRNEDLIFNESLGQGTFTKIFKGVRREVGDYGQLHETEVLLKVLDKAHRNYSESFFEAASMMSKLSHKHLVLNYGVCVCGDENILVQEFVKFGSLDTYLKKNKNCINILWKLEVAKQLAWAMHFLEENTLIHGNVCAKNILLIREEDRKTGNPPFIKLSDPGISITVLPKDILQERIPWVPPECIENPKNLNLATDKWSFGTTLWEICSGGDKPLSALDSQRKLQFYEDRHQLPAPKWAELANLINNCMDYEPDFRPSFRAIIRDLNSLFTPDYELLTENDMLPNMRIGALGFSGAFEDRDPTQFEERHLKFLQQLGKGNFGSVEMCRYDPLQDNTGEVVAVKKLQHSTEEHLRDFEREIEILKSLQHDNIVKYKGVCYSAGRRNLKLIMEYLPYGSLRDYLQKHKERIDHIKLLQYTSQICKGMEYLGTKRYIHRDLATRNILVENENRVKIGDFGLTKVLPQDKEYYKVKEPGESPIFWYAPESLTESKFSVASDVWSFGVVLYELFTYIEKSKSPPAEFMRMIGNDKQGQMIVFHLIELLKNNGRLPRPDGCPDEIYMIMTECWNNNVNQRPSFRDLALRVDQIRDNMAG
Sequence of human JAK3 (P52333 whole entry): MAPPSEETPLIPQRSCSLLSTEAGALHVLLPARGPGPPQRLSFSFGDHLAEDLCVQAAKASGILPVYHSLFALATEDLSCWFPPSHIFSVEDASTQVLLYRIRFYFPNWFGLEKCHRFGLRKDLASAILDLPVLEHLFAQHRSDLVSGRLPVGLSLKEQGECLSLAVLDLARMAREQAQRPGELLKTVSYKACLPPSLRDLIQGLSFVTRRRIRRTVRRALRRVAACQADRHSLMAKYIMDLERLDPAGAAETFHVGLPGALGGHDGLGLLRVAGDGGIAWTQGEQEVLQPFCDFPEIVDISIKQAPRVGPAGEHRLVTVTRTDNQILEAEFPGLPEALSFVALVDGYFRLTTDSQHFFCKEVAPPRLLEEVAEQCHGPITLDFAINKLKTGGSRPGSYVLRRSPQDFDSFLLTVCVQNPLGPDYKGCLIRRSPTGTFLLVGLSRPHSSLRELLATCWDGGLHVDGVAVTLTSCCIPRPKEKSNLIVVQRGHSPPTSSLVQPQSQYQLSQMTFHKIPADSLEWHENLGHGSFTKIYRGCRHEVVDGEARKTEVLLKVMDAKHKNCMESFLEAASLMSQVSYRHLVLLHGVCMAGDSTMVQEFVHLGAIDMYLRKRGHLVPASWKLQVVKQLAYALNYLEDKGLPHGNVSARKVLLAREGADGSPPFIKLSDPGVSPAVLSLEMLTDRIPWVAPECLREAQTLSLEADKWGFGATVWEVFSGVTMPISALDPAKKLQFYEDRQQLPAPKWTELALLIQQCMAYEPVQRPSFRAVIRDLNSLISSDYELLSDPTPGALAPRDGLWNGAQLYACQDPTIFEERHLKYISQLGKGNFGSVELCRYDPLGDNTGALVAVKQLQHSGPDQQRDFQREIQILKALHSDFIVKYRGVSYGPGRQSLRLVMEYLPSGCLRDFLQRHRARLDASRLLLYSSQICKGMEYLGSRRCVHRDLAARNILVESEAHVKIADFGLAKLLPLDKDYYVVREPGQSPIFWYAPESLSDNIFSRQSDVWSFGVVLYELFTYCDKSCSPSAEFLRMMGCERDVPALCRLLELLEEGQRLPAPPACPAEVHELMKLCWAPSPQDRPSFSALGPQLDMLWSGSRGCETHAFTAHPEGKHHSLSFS
Sequence of TYK2 JH2 domain (P29597 589-875): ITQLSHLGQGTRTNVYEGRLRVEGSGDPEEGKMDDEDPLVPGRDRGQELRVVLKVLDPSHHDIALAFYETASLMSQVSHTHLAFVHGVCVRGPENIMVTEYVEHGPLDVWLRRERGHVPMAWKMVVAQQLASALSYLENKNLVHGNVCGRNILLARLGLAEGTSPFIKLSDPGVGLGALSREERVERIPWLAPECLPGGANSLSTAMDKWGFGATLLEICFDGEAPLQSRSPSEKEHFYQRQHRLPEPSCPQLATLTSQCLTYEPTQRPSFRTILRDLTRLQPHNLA

COc1c(Nc2cc(NC(=O)C3CC3)ncc2C(C)=O)cccc1-c1ncn(C)n1 [Compound 1A, N-(5-acetyl-4-((2-methoxy-3-(1-methyl-1H-1,2,4-triazol-3-yl)phenyl)amino)pyridin-2-yl)cyclopropanecarboxamide]
IC50 (TYK2 JH2 domain; [1]): < 5 nM

COc1c(Nc2cc(NC(=O)OC(C)(C)C)ncc2C(C)=O)cccc1-c1ncn(C)n1 [Compound 1D]
IC50 (TYK2 JH2 domain; [1]): 50 to 500 nM

COc1c(Nc2cc(NC(C)=O)ncc2C(C)=O)cccc1-c1ncn(C)n1 [Compound 1G]
IC50 (TYK2 JH2 domain; [1]): 5 to 50 nM

CCC(=O)Nc1cc(Nc2cccc(-c3ncn(C)n3)c2OC)c(C(C)=O)cn1 [Compound 1H]
IC50 (TYK2 JH2 domain; [1]): 5 to 50 nM

CCCC(=O)Nc1cc(Nc2cccc(-c3ncn(C)n3)c2OC)c(C(C)=O)cn1 [Compound 1I]
IC50 (TYK2 JH2 domain; [1]): < 5 nM

COc1c(Nc2cc(NC(=O)C3CCC3)ncc2C(C)=O)cccc1-c1ncn(C)n1 [Compound 1J]
IC50 (TYK2 JH2 domain; [1]): 5 to 50 nM

COc1c(Nc2cc(NC(=O)[C@@H]3C[C@@H]3F)ncc2C(C)=O)cccc1-c1ncn(C)n1 [Compound 1K]
IC50 (TYK2 JH2 domain; [1]): < 5 nM

COc1c(Nc2cc(NC(=O)[C@H]3C[C@H]3F)ncc2C(C)=O)cccc1-c1ncn(C)n1 [Compound 1L]
IC50 (TYK2 JH2 domain; [1]): 5 to 50 nM

COc1c(Nc2cc(NC(=O)CN(C)C)ncc2C(C)=O)cccc1-c1ncn(C)n1 [Compound 1M]
IC50 (TYK2 JH2 domain; [1]): 50 to 500 nM

COC(=O)Nc1cc(Nc2cccc(-c3ncn(C)n3)c2OC)c(C(C)=O)cn1 [Compound 1N]
IC50 (TYK2 JH2 domain; [1]): 50 to 500 nM

COc1c(Nc2cc(NC(=O)CN3CCOCC3)ncc2C(C)=O)cccc1-c1ncn(C)n1 [Compound 1O]
IC50 (TYK2 JH2 domain; [1]): 50 to 500 nM

COc1c(Nc2cc(NC(=O)N(C)C)ncc2C(C)=O)cccc1-c1ncn(C)n1 [Compound 1P]
IC50 (TYK2 JH2 domain; [1]): 50 to 500 nM

COc1c(Nc2cc(N)ncc2C(C)=O)cccc1-c1ncn(C)n1 [Compound 2, 1-(6-amino-4-((2-methoxy-3-(1-methyl-1H-1,2,4-triazol-3-yl)phenyl)amino)pyridin-3-yl)ethan-1-one]
IC50 (TYK2 JH2 domain; [1]): ≥ 500 nM

COC(=O)c1cnc(NC(=O)C2CC2)cc1Nc1cccc(-c2ncn(C)n2)c1OC [Compound 3, methyl 6-(cyclopropanecarboxamido)-4-((2-methoxy-3-(1-methyl-1H-1,2,4-triazol-3-yl)phenyl)amino)nicotinate]
IC50 (TYK2 JH2 domain; [1]): < 5 nM

COc1c(Nc2cc(Nc3ccc(F)cc3)ncc2C(C)=O)cccc1-c1ncn(C)n1 [Compound 7B]
IC50 (TYK2 JH2 domain; [1]): ≥ 500 nM

COc1c(Nc2cc(Nc3ccccn3)ncc2C(C)=O)cccc1-c1ncn(C)n1 [Compound 7C]
IC50 (TYK2 JH2 domain; [1]): < 5 nM

COc1c(Nc2cc(Nc3cc(C)ccn3)ncc2C(C)=O)cccc1-c1ncn(C)n1 [Compound 7D]
IC50 (TYK2 JH2 domain; [1]): < 5 nM

COc1ccnc(Nc2cc(Nc3cccc(-c4ncn(C)n4)c3OC)c(C(C)=O)cn2)c1 [Compound 7E]
IC50 (TYK2 JH2 domain; [1]): < 5 nM

COc1c(Nc2cc(Nc3cc(C#N)ccn3)ncc2C(C)=O)cccc1-c1ncn(C)n1 [Compound 7F]
IC50 (TYK2 JH2 domain; [1]): < 5 nM

COc1c(Nc2cc(Nc3ncccc3F)ncc2C(C)=O)cccc1-c1ncn(C)n1 [Compound 7G]
IC50 (TYK2 JH2 domain; [1]): 5 to 50 nM

COc1c(Nc2cc(Nc3ccc(F)cn3)ncc2C(C)=O)cccc1-c1ncn(C)n1 [Compound 7H]
IC50 (TYK2 JH2 domain; [1]): < 5 nM

COc1ccc(Nc2cc(Nc3cccc(-c4ncn(C)n4)c3OC)c(C(C)=O)cn2)nc1 [Compound 7I]
IC50 (TYK2 JH2 domain; [1]): < 5 nM

COc1c(Nc2cc(Nc3cccc(C)n3)ncc2C(C)=O)cccc1-c1ncn(C)n1 [Compound 7J]
IC50 (TYK2 JH2 domain; [1]): < 5 nM

COc1cccc(Nc2cc(Nc3cccc(-c4ncn(C)n4)c3OC)c(C(C)=O)cn2)n1 [Compound 7K]
IC50 (TYK2 JH2 domain; [1]): < 5 nM

COc1c(Nc2cc(Nc3cc(C)c(F)cn3)ncc2C(C)=O)cccc1-c1ncn(C)n1 [Compound 7L]
IC50 (TYK2 JH2 domain; [1]): < 5 nM

COc1c(Nc2cc(Nc3cc(C)c(Cl)cn3)ncc2C(C)=O)cccc1-c1ncn(C)n1 [Compound 7M]
IC50 (TYK2 JH2 domain; [1]): < 5 nM

COc1c(Nc2cc(Nc3ccc(N4CCOCC4)cn3)ncc2C(C)=O)cccc1-c1ncn(C)n1 [Compound 7N]
IC50 (TYK2 JH2 domain; [1]): < 5 nM

COc1c(Nc2cc(Nc3ncccn3)ncc2C(C)=O)cccc1-c1ncn(C)n1 [Compound 7O]
IC50 (TYK2 JH2 domain; [1]): 50 to 500 nM

COc1c(Nc2cc(Nc3ncc(F)cn3)ncc2C(C)=O)cccc1-c1ncn(C)n1 [Compound 7P]
IC50 (TYK2 JH2 domain; [1]): 50 to 500 nM

COc1c(Nc2cc(Nc3cc(C)ncn3)ncc2C(C)=O)cccc1-c1ncn(C)n1 [Compound 7Q]
IC50 (TYK2 JH2 domain; [1]): < 5 nM

COc1c(Nc2cc(Nc3ccnc(C)n3)ncc2C(C)=O)cccc1-c1ncn(C)n1 [Compound 7R]
IC50 (TYK2 JH2 domain; [1]): < 5 nM

CCOc1ccc(Nc2cc(Nc3cccc(-c4ncn(C)n4)c3OC)c(C(C)=O)cn2)nn1 [Compound 7S]
IC50 (TYK2 JH2 domain; [1]): < 5 nM

COc1c(Nc2cc(Nc3cnn(C)c3)ncc2C(C)=O)cccc1-c1ncn(C)n1 [Compound 7T]
IC50 (TYK2 JH2 domain; [1]): 50 to 500 nM

COc1c(Nc2cc(Nc3ccn(C)n3)ncc2C(C)=O)cccc1-c1ncn(C)n1 [Compound 7U]
IC50 (TYK2 JH2 domain; [1]): < 5 nM

CCC(=O)c1cnc(Nc2ccc(C(N)=O)cn2)cc1Nc1cccc(-c2ncn(C)n2)c1OC [Compound 8A, 6-((4-((2-methoxy-3-(1-methyl-1H-1,2,4-triazol-3-yl)phenyl)amino)-5-propionylpyridin-2-yl)amino)nicotinamide]
IC50 (human JAK1): ≥ 500 nM
IC50 (human JAK2): 50 to 500 nM
IC50 (human JAK3): 50 to 500 nM
IC50 (TYK2 JH2 domain; Table 20, read-out: TYK2 IC50): < 5 nM

CCC(=O)c1cnc(Nc2ccc(C(=O)O)cn2)cc1Nc1cccc(-c2ncn(C)n2)c1OC [Compound 8B]
IC50 (human JAK1): ≥ 500 nM
IC50 (human JAK2): ≥ 500 nM
IC50 (human JAK3): ≥ 500 nM
IC50 (TYK2 JH2 domain; Table 20, read-out: TYK2 IC50): 50 to 500 nM

CCC(=O)c1cnc(Nc2ccc(C(=O)NC)cn2)cc1Nc1cccc(-c2ncn(C)n2)c1OC [Compound 8C]
IC50 (human JAK1): ≥ 500 nM
IC50 (human JAK2): ≥ 500 nM
IC50 (human JAK3): ≥ 500 nM
IC50 (TYK2 JH2 domain; Table 20, read-out: TYK2 IC50): < 5 nM

CCC(=O)c1cnc(Nc2ccc(C(=O)N(C)C)cn2)cc1Nc1cccc(-c2ncn(C)n2)c1OC [Compound 8D]
IC50 (human JAK1): ≥ 500 nM
IC50 (human JAK2): ≥ 500 nM
IC50 (human JAK3): ≥ 500 nM
IC50 (TYK2 JH2 domain; Table 20, read-out: TYK2 IC50): < 5 nM

CCC(=O)c1cnc(Nc2cc(C(=O)O)ccn2)cc1Nc1cccc(-c2ncn(C)n2)c1OC [Compound 8E]
IC50 (human JAK1): ≥ 500 nM
IC50 (human JAK2): ≥ 500 nM
IC50 (human JAK3): ≥ 500 nM
IC50 (TYK2 JH2 domain; Table 20, read-out: TYK2 IC50): ≥ 500 nM

CCC(=O)c1cnc(Nc2cc(C(N)=O)ccn2)cc1Nc1cccc(-c2ncn(C)n2)c1OC [Compound 8F]
IC50 (human JAK1): ≥ 500 nM
IC50 (human JAK2): ≥ 500 nM
IC50 (human JAK3): ≥ 500 nM
IC50 (TYK2 JH2 domain; Table 20, read-out: TYK2 IC50): < 5 nM

CCC(=O)c1cnc(Nc2cc(C(=O)NC)ccn2)cc1Nc1cccc(-c2ncn(C)n2)c1OC [Compound 8G]
IC50 (human JAK1): ≥ 500 nM
IC50 (human JAK2): ≥ 500 nM
IC50 (human JAK3): ≥ 500 nM
IC50 (TYK2 JH2 domain; Table 20, read-out: TYK2 IC50): < 5 nM

CCC(=O)c1cnc(Nc2cc(C(C)NC)ncn2)cc1Nc1cccc(-c2ncn(C)n2)c1OC (stereo not shown) [Compound 9PPPP]
IC50 (human JAK2): 50 to 500 nM

CCC(=O)c1cnc(Nc2ccc(CN3CCN(C)CC3)nn2)cc1Nc1cccc(-c2ncn(C)n2)c1OC [Compound 9PPP]
IC50 (human JAK2): 50 to 500 nM
IC50 (TYK2 JH2 domain; Table 20, read-out: TYK2 IC50): 5 to 50 nM

CCC(=O)c1cnc(Nc2ccc(S(=O)(=O)N(C)C)cn2)cc1Nc1cccc(-c2ncn(C)n2)c1OC [Compound 13D]
IC50 (human JAK1): ≥ 500 nM
IC50 (human JAK2): ≥ 500 nM
IC50 (human JAK3): ≥ 500 nM

CCC(=O)c1cnc(Nc2cnc(O[C@@H]3CCN(CC)C3)cn2)cc1Nc1cccc(-c2ncn(C)n2)c1OC [Compound 18DDD]
IC50 (TYK2 JH2 domain; Table 20, read-out: TYK2 IC50): 5 to 50 nM

CCC(=O)c1cnc(Nc2cnc(C(F)(F)CN)cn2)cc1Nc1cccc(-c2ncn(C)n2)c1OC [Compound 19A, 1-(6-((5-(2-amino-1,1-difluoroethyl)pyrazin-2-yl)amino)-4-((2-methoxy-3-(1-methyl-1H-1,2,4-triazol-3-yl)phenyl)amino)pyridin-3-yl)propan-1-one]
IC50 (TYK2 JH2 domain; Table 20, read-out: TYK2 IC50): 5 to 50 nM
